From patent publication US20240075000A1 (priority 2021, published 2024)

Assays:
[1] = system: resistance-trained adults; details: in vivo; cited from earlier work
[2] = system: fetus; details: in vivo; cited from earlier work
[3] = LD50 toxicity; details: in vivo
Procedure: The dose ratio between toxic and therapeutic effects is the therapeutic index and it can be expressed as the ratio LD50/ED50. […] The “no observable adverse effects level” (NOAEL) in a 90-day sub-chronic rat study was 500 mg/kg (the highest dose in the test).

[4] = system: Parkinson's patients; assay: double blinded placebo-controlled trial in Parkinson's patients, MDS-UPDRS fatigue question 1.13; format: in vivo, human; details: 2 capsules benaGene (100 mg oxaloacetate/150 mg ascorbic acid) per day, 4 months, P value<0.05, 13 patients
Procedure: As used herein, the term “MDS-UPDRS” refers to the “Movement Disorder Society-Sponsored Revision of the United Parkinson's Disease Rating Scale” (Goetz et al, Movement Disorder Society-Sponsored Revision of the United Parkinson's Disease Rating Scale (MDS-UPDRS): Scale Presentation and Clinimetric Testing Results, Movement Disorders Vol. 23, No. 15, 2008, pp. 2129-2170).
Based on the findings of the Inventor, a clinical trial was performed on Parkinson's Disease patients. The trial used the MDS-UPDRS (Goetz et al, Movement Disorder Society-Sponsored Revision of the United Parkinson's Disease Rating Scale (MDS-UPDRS): Scale Presentation and Clinimetric Testing Results, Movement Disorders Vol. 23, No. 15, 2008, pp. 2129-2170) (45) as a validated method to clinically measure pathological fatigue in Parkinson's patients. The Fatigue question is as follows: • 1.13 Fatigue • Over the past week, have you usually felt fatigued? This feeling is not part of being sleepy or sad • 0: Normal: No fatigue • 1: Slight: Fatigue occurs.

[5] = system: ALS patient; assay: ALS patient on long-term supplementation; format: in vivo, human; details: 3,000 mg daily, after 8 months
Excerpt: For ALS, this is surprising and welcome news as the anticipated decline rate for this period of time ranges from 12% to 43% as measured by the ALS FRS. (Ong M L, Tan P F, Holbrook J D. Predicting functional decline and survival in amyotrophic lateral sclerosis. PLoS One. 2017; 12(4):e0174925. Published 2017 Apr. 13. doi:10.1371/journal.pone.0174925).
The patient's email: • “Dear Alan, Good afternoon. […] We are thrilled! Could we please have some more medicine? Thanks!”

[6] = system: pneumonia patient; assay: fatigue after pneumonia, patient testimonial; format: in vivo, human; details: 500 mg daily
Excerpt: The Inventor has supplied Anhydrous Enol-Oxaloacetate for fatigue after pneumonia. Pneumonia patients often suffer from physiological fatigue. In a retrospective study of 506 adults with clinical and radiographic evidence of pneumonia, […] of the patients suffered from fatigue at 90 days after diagnosis. (Metlay J P, Fine M J, Schulz R, Marrie T J, Coley C M, Kapoor W N, et al. Measuring symptomatic and functional recovery in patients with community-acquired pneumonia. J Gen Intern Med. 1997; 12(7):423-30). […] The place where oxaloacetate made the most significant difference for me was in alleviation of the crushing fatigue that accompanied the pneumonia. […] On querying nurses and physical therapists about this response, the universal answer was that it was “typical.” Speaking with people who had had pneumonia at different ages—granted that this is anecdotal—garnered consistent stories of extreme fatigue and a slow recovery that took years to achieve prior energy levels even with people who had been physically active teenagers at the time. • I was in the hospital for 2 weeks and then in skilled care for about 6 weeks, putting me in the 40% of the population that don't manage to avoid hospitalization. […]

[7] = system: patients with ME/CFS; assay: clinical trial in ME/CFS, three dosage levels; format: in vivo, human
[8] = system: cancer patients; assay: cancer patient fatigue case reports (Examples 13-17); format: in vivo, human
Excerpt: A cancer patient with recurrent stage 4 glioblastoma multiforme encountered significant fatigue as part of the ongoing disease.
A cancer patient with Stage 2 primary prostate cancer experienced significant fatigue. […] The patient has been able to eliminate pathological fatigue for 4 years now and is continuing the dosage.
A cancer patient with stage 4 primary hepatocellular carcinoma experienced significant fatigue, and due to cancer progression, was placed in hospice.
A cancer patient with stage 4 breast cancer experienced pathological fatigue.
A cancer patient with stage 3 colon cancer experienced pathological fatigue. […] The patient continued to be fatigue-free and went into cancer remission, which was also fatigue free.

[9] = system: patient with Alzheimer's disease; assay: Alzheimer's disease patient fatigue case; format: in vivo, human; details: caregiver testimonial
Excerpt: A patient with Alzheimer's disease experienced significant muscle and mental fatigue. […] The testimonial is shown below.

[10] = system: patient diagnosed with Fibromyalgia; assay: Fibromyalgia patient fatigue case; format: in vivo, human
Excerpt: A patient diagnosed with Fibromyalgia had significant fatigue. […] They increased their dosage to 6 capsules per day and has seen more than a 50% improvement in their fatigue.

[11] = system: cancer cells; details: glioblastoma; cited from earlier work
[12] = system: mitochondrial production and density; details: cited from earlier work
[13] = system: glucose uptake; details: diabetic patients and Alzheimer's patients; cited from earlier work
[14] = system: Mouse Soleus Muscle; details: normal cells, fatigue stimulated by electrical current applied to the muscle; cited from earlier work
[15] = system: post-COVID-19 fatigue patient; assay: post-COVID-19 fatigue case, physician (Example 3); details: 500 mg BID
[16] = system: patients with post-COVID-19 fatigue; assay: clinical trial in Long Haul post-COVID-19 fatigue; details: oral 500 mg BID, 6 weeks
Procedure: Fatigue is assessed by the Chalder Fatigue Scale, the Fatigue Severity Scale, and PROMIS-Fatigue-Short Form 7a. Scores are summarized as means and standard deviations and confidence intervals will be calculated. Changes are also summarized as effect sizes. […] All patients provided written informed consent to participate in the study prior to being screened.
18 patients who suffered from “Long Haul” post-COVID-19 fatigue for an average of 6 months were recruited to a clinical trial.

## Cn1c(=O)c2c(ncn2C)n(C)c1=O [Caffeine]
[1]
  effects on muscular performance: minimal effects on muscular performance

## NC(=O)C[S+]([O-])C(c1ccccc1)c1ccccc1 (centres unmarked) [Modafinil]
[2]
  animal reproduction studies, finding: adverse effect on the fetus

## CC(N)Cc1ccccc1 (centres unmarked) [amphetamine]
[2]
  animal reproduction studies, finding: adverse effect on the fetus

## C[C@H](N)Cc1ccccc1 [dextroamphetamine]
[2]
  animal reproduction studies, finding: adverse effect on the fetus

## COC(=O)C(c1ccccc1)C1CCCCN1 (centres unmarked) [methylphenidate]
[2]
  animal reproduction studies, finding: adverse effect on the fetus

## O=C(O)CC(=O)C(=O)O [oxaloacetate, 2-oxobutanedioic Acid]
[3]
  LD50: above 5 g/kg of body weight
[4]
  improvement of MDS-UPDRS fatigue score over baseline: 28.7%
[5]
  function, fatigue/muscle function: no decline in function
[6]
  fatigue after Pneumonia: rapid resolution of fatigue
[7]; 500 mg BID, 2 weeks, N=22
  reduction from baseline fatigue, Chalder Fatigue Scale: 15.3%
[7]; 500 mg BID, 6-weeks, N=22
  reduction in fatigue, Chalder Fatigue Scale: 21.9%
[7]; 1,000 mg BID, 6-weeks, N=25
  reduction in fatigue, Chalder Fatigue Scale: 30.2%
[7]; 1,000 mg TID, 2 weeks, N=22
  reduction in fatigue, Chalder Fatigue Scale: 17.5%
[7]; 69 patients, all dosage levels
  severe Adverse Effects recorded in the study: no severe Adverse Effects
[7]; historical placebo effect 5.9%
  patients in the study improved over historical placebo: 76.8%
[7]; of 69, resolved by moving dosing to breakfast and lunch
  patients who experienced insomnia: 1 patient
[7]; of 69, resolved by taking with food
  patients who experienced dyspepsia: 4 patients
[8]; Stage 2 primary prostate cancer, 1,000 mg daily, 4 years
  pathological fatigue: ameliorated
[8]; glioblastoma patient, 6,000 mg daily for one year
  adverse events: without any significant adverse events
[8]; hepatocellular carcinoma patient, 3,000 mg per day for 10 months
  side effects: without side effects
[8]; prostate cancer patient, 1,000 mg daily
  side effects: No side effects
[8]; recurrent stage 4 glioblastoma multiforme, 6,000 mg daily
  fatigue associated with the cancer: ameliorated
[8]; stage 3 colon cancer, 1,000 mg per day (500 mg BID)
  fatigue: significant reduction in fatigue
[8]; stage 4 breast cancer, 1,000 mg per day, after 3 days
  fatigue: significant reduction in fatigue
[8]; stage 4 primary hepatocellular carcinoma, 3,000 mg per day
  fatigue: significant reduction in fatigue
[9]
  mental and physical pathological fatigue: significantly reduces mental and physical pathological fatigue
[10]; 2 capsules of 100 mg per day
  fatigue: improvement
[10]; 6 capsules of 100 mg per day
  improvement in fatigue: > 50%
[11]
  glycolysis and formation of lactate: reducing both glycolysis and the formation of lactate
[12]
  mitochondrial production and density: increased mitochondrial production and density
[13]
  glucose uptake: increase glucose uptake
[14]
  muscle endurance and muscle fatigue: increase muscle endurance and reduce muscle fatigue
[15]
  side effect reported by the patient: nausea
[16]
  adverse events during the trial: no significant adverse events
[16]; 18 patients, P<0.005
  reduction in fatigue compared to baseline, PROMIS Fatigue Short Form 7a: 21%
  reduction in fatigue from baseline, Fatigue Severity Scale: 15%
  reduction of fatigue from baseline, Chalder Fatigue Scale: 45%
[16]; 18 patients, P<0.05
  reduction, Visual Analogue Fatigue Scale: 56%
